Several values for one entry are separate records, joined by “and”; a condition that tells them apart may be missing. Identical values can stand only once.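 Where inhibition never reached the appropriate level, the endpoint shown equals the highest concentration tested. Otherwise, values were interpolated linearly from a five-concentration, 48-hour dose response in 96-well plates. GI50 is the concentration that inhibits growth by half. Definition used: TGI = concentration required for complete inhibition of growth.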
How the values were obtained:
Assay in all cases: growth of human tumour cells (NCI), 48 h
CAKI-1 renal = test system: CAKI-1 renal
NCI-H522 lung = test system: NCI-H522 lung
SW-620 colon = test system: SW-620 colon
MALME-3M melanoma = test system: MALME-3M melanoma
MOLT-4 leukemia = test system: MOLT-4 leukemia
NCI-H226 lung = test system: NCI-H226 lung
KM12 colon = test system: KM12 colon
SK-MEL-28 melanoma = test system: SK-MEL-28 melanoma
SK-MEL-5 melanoma = test system: SK-MEL-5 melanoma
NCI-H460 lung = test system: NCI-H460 lung

Structure (SMILES)	TGI (CAKI-1 renal)	TGI (NCI-H522 lung)	TGI (SW-620 colon)	TGI (MALME-3M melanoma)	TGI (MOLT-4 leukemia)	TGI (NCI-H226 lung)	TGI (KM12 colon)	TGI (SK-MEL-28 melanoma)	TGI (SK-MEL-5 melanoma)	TGI (NCI-H460 lung)	GI50 (CAKI-1 renal)	GI50 (NCI-H522 lung)	GI50 (NCI-H226 lung)	GI50 (KM12 colon)	GI50 (SK-MEL-28 melanoma)	GI50 (SK-MEL-5 melanoma)	GI50 (MALME-3M melanoma)	GI50 (SW-620 colon)	GI50 (NCI-H460 lung)
CN(C)CCNc1ccc(C(=O)NCCCN(C)CCCNC(=O)c2ccc(NCCN(C)C)c3c(=O)c4ccccc4[nH]c23)c2[nH]c3ccccc3c(=O)c12	31.8 µM	0.0685 µM	2.36 µM	0.844 µM	2.78 µM	0.148 µM	0.906 µM	0.604 µM	1.06 µM	1.43 µM	–	–	–	–	–	–	–	–	–
O=C1c2c(F)c(F)c(F)c(F)c2SC2=NCCN12	6.67 µM	10.1 µM	6.29 µM	12.8 µM	6.7 µM	34.5 µM	25.6 µM	22.8 µM	28.4 µM	17.5 µM	–	–	–	–	–	–	–	–	–
OCCOc1ccc(-c2cc(-c3ccccn3)nc(-c3ccccn3)c2)cc1	17.7 µM	14.1 µM	> 100 µM	17.5 µM	22.6 µM	4.55 µM	> 100 µM	> 100 µM	8.54 µM	3.69 µM	–	–	–	–	–	–	–	–	–
O=C1C(N2CCCC2)=CC(=O)c2c(O)c(N3CCCC3)c(Cl)c(O)c21	> 10 µM	> 10 µM	> 10 µM	> 10 µM	> 10 µM	> 10 µM	> 10 µM	> 10 µM	> 10 µM	> 10 µM	–	–	–	–	–	–	–	–	–
c1ccc(CNC2CC(NCc3ccccn3)CC(NCc3ccccn3)C2)nc1 (centres undefined)	28 µM and 25 µM and 17.2 µM	6.36 µM and 12.2 µM and 4.68 µM	41.7 µM and 25 µM and 32.9 µM	10.4 µM and 8.6 µM and 15.8 µM	23.4 µM and 24.8 µM and 33.1 µM	6.07 µM and 7.07 µM and 5.39 µM	3.8 µM and 6 µM and 4.07 µM	18.5 µM and 13.3 µM and 26.4 µM	5.52 µM and 7.49 µM and 3.68 µM	7.07 µM and 12 µM	4.6 µM and 16.3 µM and 4.35 µM	2.16 µM	2.77 µM	2.05 µM	7.71 µM	1.88 µM	–	–	–
O=C(Nc1c(O)[nH]c(=S)[nH]c1=O)c1ccccn1	> 100 µM	> 100 µM	> 100 µM	> 100 µM	> 100 µM	> 100 µM	> 100 µM	> 100 µM	> 100 µM	> 100 µM	–	–	–	–	–	–	–	–	–
CN1C/C(=C\c2cccs2)C2=NC(=S)NC(c3cccs3)C2C1 (centres undefined)	> 100 µM	> 100 µM	> 100 µM	> 100 µM	92 µM	> 100 µM	> 100 µM	> 100 µM	> 100 µM	> 100 µM	–	–	–	–	–	–	–	–	–
CC[n+]1cnc(N)c2c(-c3ccc(Cl)cc3)cn(-c3ccc(C)cc3)c21	30.6 µM	31.2 µM	30.5 µM	25.5 µM	20.5 µM	28.2 µM	30.7 µM	21.2 µM	22 µM	35.8 µM	–	–	–	–	–	–	–	–	–
O=C1c2ccccc2C2(O)Nc3cc(O)ccc3C12O (centres undefined)	> 100 µM	> 100 µM	> 100 µM	> 100 µM	> 100 µM	> 100 µM	> 100 µM	> 100 µM	> 100 µM	> 100 µM	–	–	–	–	–	–	–	–	–
C/C=C/[C@@]1(OC(=O)c2ccccc2)C[C@@H]2CCCC[C@@H]21	31.4 µM	29.9 µM	48.3 µM	35.3 µM	40.2 µM	30.9 µM	32.9 µM	32.9 µM	29.3 µM	34.2 µM	–	–	–	–	–	–	–	–	–
S=c1sc2c(Cl)ncnc2n1-c1ccccc1	13.8 µM	3.8 µM	35.1 µM	23.9 µM	56.1 µM	26.4 µM	31 µM	23.6 µM	29.7 µM	32.6 µM	–	–	–	–	–	–	–	–	–
O=C(CSCC(=O)N/N=C/c1cc(I)cc(I)c1O)N/N=C/c1cc(I)cc(I)c1O	> 100 µM	35 µM	> 100 µM	44.3 µM	29.2 µM	41.1 µM	88.2 µM	> 100 µM	24.8 µM	82 µM	–	–	–	–	–	–	–	–	–
CCCC(=O)O	12000 µM	> 18700 µM	> 18700 µM	> 18700 µM	> 18700 µM	> 18700 µM	> 18700 µM	> 18700 µM	6100 µM	> 18700 µM	–	–	–	–	–	2410 µM	3490 µM	–	–
O=C(c1ccccc1)c1ccc2c(c1)nc1n2C(c2c(Cl)cccc2Cl)SC1 (centres undefined)	> 100 µM	> 100 µM	> 100 µM	> 100 µM	> 100 µM	> 100 µM	> 100 µM	> 100 µM	> 100 µM	> 100 µM	–	–	–	–	–	–	–	–	–
C=CCC1(O)c2ccccc2C(=O)c2c(O)ccc(O)c21 (centres undefined)	50.7 µM	8.11 µM	> 100 µM	28.8 µM	> 58 µM	> 43 µM	30.1 µM	> 100 µM	23.1 µM	18.3 µM	–	–	–	–	–	–	–	–	–
O=C1CSC2(CC(/C=C/c3ccccc3)=NN2c2cccc(S(=O)(=O)O)c2)N1c1nc2ccccc2s1 (centres undefined)	> 100 µM	37 µM	> 100 µM	> 100 µM	91.5 µM	> 100 µM	38.3 µM	> 100 µM	> 100 µM	> 100 µM	–	–	–	–	–	–	–	–	–
C=C(C)[C@@]1(O)O[C@H]2C[C@@]3(C)OC(=CC3=O)/C(C)=C\[C@@H]3OC(=O)[C@@]1(C)[C@H]32	42.9 µM	15.6 µM	19.5 µM	> 100 µM	40.4 µM	69.8 µM	32.5 µM	30.4 µM	30.5 µM	> 76.8 µM	–	–	–	–	–	–	–	–	–

Structure (SMILES)	TGI (CAKI-1 renal)	TGI (NCI-H522 lung)	TGI (SW-620 colon)	TGI (MALME-3M melanoma)	TGI (MOLT-4 leukemia)	TGI (NCI-H226 lung)	TGI (KM12 colon)	TGI (SK-MEL-28 melanoma)	TGI (SK-MEL-5 melanoma)	TGI (NCI-H460 lung)	GI50 (CAKI-1 renal)	GI50 (NCI-H522 lung)	GI50 (NCI-H226 lung)	GI50 (KM12 colon)	GI50 (SK-MEL-28 melanoma)	GI50 (SK-MEL-5 melanoma)	GI50 (MALME-3M melanoma)	GI50 (SW-620 colon)	GI50 (NCI-H460 lung)
CN(C)c1nc2sc3c(c2c(=O)o1)CCCC3	> 100 µM	> 100 µM	> 100 µM	> 100 µM	> 100 µM	81 µM	> 100 µM	> 100 µM	> 100 µM	> 100 µM	–	–	–	–	–	–	–	–	–
COC(=O)c1c2c(cc3c1CC1(Cc4ccccc4C1=O)C3)CCC2 (centres undefined)	> 100 µM	> 100 µM	> 100 µM	79.9 µM	47.4 µM	44.2 µM	61.5 µM	> 100 µM	29.5 µM	> 100 µM	–	–	–	–	–	–	–	–	–
Nc1nc(Cl)cc(NCC2(O)CC(CO)C2)n1 (centres undefined)	> 100 µM	> 100 µM	> 100 µM	> 100 µM	> 100 µM	> 100 µM	> 100 µM	> 100 µM	> 100 µM	> 100 µM	–	–	–	–	–	–	–	–	–
C1=C\SS/C=C\SS/C=C\SS/C=C\SS/1	> 100 µM	84.4 µM	> 100 µM	> 100 µM	> 100 µM	> 100 µM	> 100 µM	> 100 µM	> 100 µM	68.3 µM	–	–	–	–	–	–	–	–	–
C1CC2=C(C1)[Se]C(=C1Sc3nsnc3S1)[Se]2	> 100 µM	> 100 µM	> 100 µM	> 100 µM	> 100 µM	> 100 µM	> 100 µM	> 100 µM	> 100 µM	> 100 µM	–	–	–	–	–	–	–	–	–
OCC1OC(c2scc3c(=S)nc[nH]c23)C(O)C1O (centres undefined)	63.3 µM	82.4 µM	> 93.1 µM	> 72.9 µM	48.4 µM	85.4 µM	> 100 µM	> 100 µM	> 73.6 µM	> 100 µM	–	–	–	–	–	–	–	–	–
CCOC(=O)c1cccc(NC(=O)CCl)c1	3.42 µM	3.49 µM	16.5 µM	18.5 µM	27.2 µM	26 µM	21.4 µM	49.7 µM	3.69 µM	5.37 µM	–	–	–	–	–	–	–	–	–
CCN(CC)CCNC(=O)c1ccccc1NC(=O)C(=O)Nc1ccccc1C(=O)NCCN(CC)CC	> 100 µM	> 100 µM	42 µM	37.7 µM	74.4 µM	> 100 µM	> 100 µM	> 100 µM	35.6 µM	> 100 µM	–	–	–	–	–	–	–	–	–
c1ccc(C2=NC3(CCCCC3)N(c3nc4ccccc4s3)N2)nc1	91.5 µM	> 100 µM	> 100 µM	> 100 µM	> 100 µM	65.6 µM	75.9 µM	> 100 µM	40.6 µM	32 µM	–	–	–	–	–	–	–	–	–
O=c1[nH]c(=O)n(C2CC(O)C(CO)O2)cc1I (centres undefined)	> 100 µM	> 100 µM	> 100 µM	> 100 µM	> 100 µM	> 100 µM	> 100 µM	> 100 µM	> 100 µM	> 100 µM	–	–	–	–	–	–	–	–	–
CC(C)(C)OC(=O)CN1CCNCCNCC1	> 100 µM	> 100 µM	> 100 µM	> 100 µM	> 100 µM	> 100 µM	> 100 µM	> 100 µM	> 100 µM	> 100 µM	–	–	–	–	–	–	–	–	–
CC(=O)OCC1OC(Nc2[nH]c(=O)n(C)c(=O)c2-c2csc(N)n2)C(OC(C)=O)C(OC(C)=O)C1OC(C)=O (centres undefined)	> 100 µM	> 100 µM	> 100 µM	> 100 µM	> 100 µM	> 100 µM	> 100 µM	> 100 µM	> 100 µM	> 100 µM	–	–	–	–	–	–	–	–	–
O=C(O)[C@H]1[C@@H](C2CCCCC2)O[C@@H](C2CCCCC2)O[C@H]1C(F)(F)F	36.4 µM	> 100 µM	52.8 µM	73.3 µM	45 µM	41.6 µM	46.4 µM	41.4 µM	44.4 µM	48.4 µM	–	–	–	–	–	–	–	–	–
O=C1NC(N/N=C\C(O)C(O)C(O)CO)=N/C1=C/c1ccccc1 (centres undefined)	> 100 µM	> 100 µM	> 100 µM	> 100 µM	> 100 µM and 54.3 µM	> 100 µM	> 100 µM	> 100 µM	> 100 µM	> 100 µM	–	> 100 µM and 46.5 µM	–	> 100 µM and 28.1 µM	> 100 µM and 25.6 µM	> 100 µM and 38.9 µM	–	> 100 µM and 34 µM	> 100 µM and 43.4 µM
Cc1ccc(C)n1-c1ccccc1C1SCCCS1	> 100 µM	> 100 µM	> 100 µM	> 100 µM	> 100 µM	> 100 µM	> 100 µM	> 100 µM	> 100 µM	> 100 µM	–	–	–	–	–	–	–	–	–
COc1ccc(/C=C2\CN(C)Cc3c2nc(N)nc3-c2ccc(OC)cc2)cc1	> 100 µM	> 100 µM	> 100 µM	> 100 µM	> 100 µM	> 100 µM	> 100 µM	> 100 µM	> 100 µM	> 100 µM	–	–	–	–	–	–	–	–	–
CCOc1cc2c(cc1O)/C(=N\N)C[C@@H]1[C@@H]2CC[C@]2(C)[C@@H](O)CC[C@@H]12	40.6 µM	5.58 µM	17.8 µM	20.8 µM	> 100 µM	29.2 µM	23 µM	34.2 µM	28 µM	> 33.6 µM	–	–	–	–	–	–	–	–	–
